# Assay results reported in patent publication US20120239131A1, “METHODS AND APPARATUS FOR TREATMENT OF ANEURYSMAL TISSUE” (Medtronic Vascular, Inc., priority 2011, published 2012).
# What was measured:
# Assay type in all cases: in vivo, ApoE−/− mice
# [1] = test system: CCR2; experiment: Aortic mural gene expression, RT-PCR (TLDA); conditions: fold change over ApoE−/− control; aorta, 28 days Ang II infusion
# Method: (§1) ApoE−/− mice used in this study were divided into different pretreatment groups: 1) Fluvastatin-MF; 2) Doxycycline-MD; 3) Irbesartan-MI; 4) Telmisartan-MT; 5) Control (water) and fed medicated chow or medicated drinking water 1 week prior to pump implantation. AngII (1000 ng·kg^−1 of body weight·min^−1) was infused subcutaneously via Alzet mini-osmotic pumps for 28 days. All mice were maintained on the medicated chow (MI & MT) or medicated drinking water (MF & MD) treatments which were delivered daily for a total of 28 days following pump implantation.
# (§2) In order to determine the effect of the various treatments on the progressive enlargement of the experimental AAAs the mice were followed with high frequency trans-abdominal ultrasound. Maximum aortic diameter was measured and recorded prior to pump implantation and then at 3, 7, 14, 21, and 28 days. All mice were sacrificed 28 days after pump implantation. Aortae were harvested and subjected to either histological analysis (Elastic Masson trichome, MAC2, CD31 and TUNEL staining) and analysis of mural gene expression. Plasma drug concentrations of experimental compounds were quantified on the day of sacrifice using high performance liquid chromatography (HPLC).
# (§3) Total RNA was extracted from homogenized aortas using the Qiazol lysis reagent and RNeasy Lipid Tissue Mini kit. DNAse treatment was included in the procedure. RNA concentration was determined utilizing the Quant iT RNA assay kit. Complimentary deoxyribonucleic acid (cDNA) was synthesized from 1 μg RNA using High reverse cDNA transcription kit. Briefly the reaction tubes containing RNA, reverse transcriptase, buffer, RNAse inhibitor, and nuclease free water were incubated at 25° C. for 10 minutes to allow annealing. Reverse transcription was performed at 37° C. for 120 min, followed by a 5 sec incubation at 85° C. to inactivate the reverse transcriptase enzyme. The cDNA samples were cooled at 4° C. and stored at −80° C. until further use.
# (§4) Real time PCR was performed using a 384-well Taqman low density array (TLDA) card. Each sample specific PCR mix contained 50 ng of total RNA converted to cDNA. The PCR reaction for Taqman assays contained 50 μl Master Mix (Taqman Universal PCR Master Mix,) and 50 ul of cDNA and RNAase free water. Assays were performed to include appropriate controls (no template control). The RT-PCR protocol included an initial step of 50° C. (2 minutes) […], denaturation by a hot start at 95° C. for 10 min, followed by 40 cycles of a 2 step program (denaturation at 95° C. for 15 secs for primer annealing/extension at 60° C. for 1 min). Fluorescence data was collected at 60° C. Fluorescence was quantified with ABI PRISM 7900HT Sequence Detection System. To verify amplification of a specific target cDNA, data generated was analyzed using SDS 2.2.3 software (Sequence Detection System Software, Applied Biosystems). For all amplification plots, the baseline data were set with the automatic CT function available with SDS 2.2.3 calculating the optimal baseline range and threshold value by using the AutoCT algorithm. According to the manufacturer's instruction, a CT value of ≧39 corresponds to nonspecific amplification marking the limits of detection. For endogenous control GAPDH was normalized to B2M. For relative quantification (RQ), pooled ApoE−/− control was used as the calibrator (with expression equal to 1).
# [2] = test system: CCR5; experiment: Aortic mural gene expression, RT-PCR (TLDA); conditions: fold change over ApoE−/− control; aorta, 28 days Ang II infusion
# Method: as §1, §2, §3, §4
# [3] = test system: Cybb; experiment: Aortic mural gene expression, RT-PCR (TLDA); conditions: fold change over ApoE−/− control; aorta, 28 days Ang II infusion
# Method: as §1, §2, §3, §4
# [4] = test system: HMOX 1; experiment: Aortic mural gene expression, RT-PCR (TLDA); conditions: fold change over ApoE−/− control; aorta, 28 days Ang II infusion
# Method: as §1, §2, §3, §4
# [5] = test system: LOX; experiment: Aortic mural gene expression, RT-PCR (TLDA); conditions: fold change over ApoE−/− control; aorta, 28 days Ang II infusion
# Method: as §1, §2, §3, §4
# [6] = test system: Osteopontin; experiment: Aortic mural gene expression, RT-PCR (TLDA); conditions: fold change over ApoE−/− control; aorta, 28 days Ang II infusion
# Method: as §1, §2, §3, §4
# [7] = test system: Rac2; experiment: Aortic mural gene expression, RT-PCR (TLDA); conditions: fold change over ApoE−/− control; aorta, 28 days Ang II infusion
# Method: as §1, §2, §3, §4
# [8] = test system: TNF-α; experiment: Aortic mural gene expression, RT-PCR (TLDA); conditions: fold change over ApoE−/− control; aorta, 28 days Ang II infusion
# Method: as §1, §2, §3, §4
# [9] = test system: Tgfβ1; experiment: Aortic mural gene expression, RT-PCR (TLDA); conditions: fold change over ApoE−/− control; aorta, 28 days Ang II infusion
# Method: as §1, §2, §3, §4
# [10] = test system: CSF1; experiment: Aortic mural gene expression, RT-PCR (TLDA); conditions: fold change over ApoE−/− control; aorta, 28 days Ang II infusion
# Method: Total RNA was extracted from homogenized aortas using the Qiazol lysis reagent and RNeasy Lipid Tissue Mini kit. DNAse treatment was included in the procedure. RNA concentration was determined utilizing the Quant iT RNA assay kit. Complimentary deoxyribonucleic acid (cDNA) was synthesized from 1 μg RNA using High reverse cDNA transcription kit. Briefly the reaction tubes containing RNA, reverse transcriptase, buffer, RNAse inhibitor, and nuclease free water were incubated at 25° C. for 10 minutes to allow annealing. […] The cDNA samples were cooled at 4° C. and stored at −80° C. until further use.
# Real time PCR was performed using a 384-well Taqman low density array (TLDA) card. Each sample specific PCR mix contained 50 ng of total RNA converted to cDNA. The PCR reaction for Taqman assays contained 50 μl Master Mix (Taqman Universal PCR Master Mix,) and 50 ul of cDNA and RNAase free water. Assays were performed to include appropriate controls (no template control). The RT-PCR protocol included an initial step of 50° C. […] Fluorescence data was collected at 60° C. Fluorescence was quantified with ABI PRISM 7900HT Sequence Detection System. To verify amplification of a specific target cDNA, data generated was analyzed using SDS 2.2.3 software (Sequence Detection System Software, Applied Biosystems). […] For relative quantification (RQ), pooled ApoE−/− control was used as the calibrator (with expression equal to 1).
# [11] = test system: aneurysm; experiment: Aneurysm incidence over time, ApoE−/−+Ang II AAA model; conditions: aneurysm = dissection or more than 50% increase in diameter, versus doxycycline and saline control
# Method: as §1, §2
# Aneurysm was defined as either the presence of dissection or more than 50% increase in diameter.
# [12] = test system: ITGAL; experiment: Aortic mural gene expression, RT-PCR (TLDA); conditions: fold change over ApoE−/− control; aorta, 28 days Ang II infusion
# Method: as §1, §2, §3, §4
Compound,CCR2 expression [1],CCR5 expression [2],Cybb expression [3],HMOX 1 expression [4],LOX expression [5],Osteopontin expression [6],Rac2 expression [7],TNF-α expression [8],Tgfβ1 expression [9],CSF1 expression [10],Inhibition of aneurysm development (aneurysm incidence) [11],Inhibition of aneurysm development (aneurysm incidence) ([11]; listed as telmisartan),ITGAL expression [12]
CCCc1nc2c(C)cc(-c3nc4ccccc4n3C)cc2n1Cc1ccc(-c2ccccc2C(=O)O)cc1 [Telmisartan],− (0 to 1 = −),− (0 to 1 = −),− (0 to 1 = −),− (0 to 1 = −),− (0 to 1 = −),− (0 to 1 = −),− (0 to 1 = −),− (0 to 1 = −),− (0 to 1 = −),− (0 to 1 = −),inhibited aneurysm development well,effective in inhibiting aneurysm development,
CC(C)n1c(/C=C/C(O)CC(O)CC(=O)O)c(-c2ccc(F)cc2)c2ccccc21 (stereo not drawn) [Fluvastatin],+++ (3.1 to 10 = +++),+++ (3.1 to 10 = +++),++ (1.51 to 3 = ++),+++ (3.1 to 10 = +++),− (0 to 1 = −),++++ (>10.1 = ++++),+ (1.1 to 1.5 = +),++ (1.51 to 3 = ++),+++ (3.1 to 10 = +++),− (0 to 1 = −),effective in inhibiting aneurysm development,,++ (1.51 to 3 = ++)
